Results taken from ChEMBL document CHEMBL3102774, “Semisynthesis of salviandulin E analogues and their antitrypanosomal activity” (Bioorg Med Chem Lett, 2014).
Values after ≈ are worked out from the molar mass of the structure shown.

Key:
[1] = test system: Trypanosoma brucei brucei; experiment: Antitrypanosomal activity against Trypanosoma brucei brucei GUTat 3.1 after 72 hrs by AlamarBlue assay; format: functional, organism-based; settings: GUTat 3.1, 72 h
[2] = test system: MRC5; experiment: Cytotoxicity against human MRC5 cells; format: cell-based
[3] = Selectivity index, ratio of IC50 for human MRC5 cells to IC50 for Trypanosoma brucei brucei GUTat 3.1; format: toxicity, cell-based; settings: read-out: Ratio IC50

SMILES	IC50 [1]	IC50 [2]	selectivity ratio [3]
CCC(=O)O[C@H]1C=C2C(=O)OC[C@]23C=CC2=C(C(C)=C3C1)[C@H](c1ccoc1)OC2=O	2.39 µg/mL (≈ 5.85 µM)	1.41 µg/mL (≈ 3.45 µM)	0.59
CCCCNC(=O)O[C@H]1C=C2C(=O)OC[C@]23C=CC2=C(C(C)=C3C1)[C@H](c1ccoc1)OC2=O	6.08 µg/mL (≈ 13.5 µM)	44.3 µg/mL (≈ 98.1 µM)	7.29
CC1=C2C[C@@H](OC(=O)Nc3ccccc3)C=C3C(=O)OC[C@]32C=CC2=C1[C@H](c1ccoc1)OC2=O	7.17 µg/mL (≈ 15.2 µM)	17.3 µg/mL (≈ 36.6 µM)	2.41
COCO[C@H]1C=C2C(=O)OC[C@]23C=CC2=C(C(C)=C3C1)[C@H](c1ccoc1)OC2=O	1.15 µg/mL (≈ 2.9 µM)	2 µg/mL (≈ 5.05 µM)	1.73
CC1=C2C[C@@H](O)C[C@H]3C(=O)OC[C@@]23C=CC2=C1[C@H](c1ccoc1)OC2=O	> 12.5 µg/mL		
CC(=O)O[C@@H]1CC2=C(C)C3=C(C=C[C@]24COC(=O)[C@@H]4C1)C(=O)O[C@H]3c1ccoc1	7.73 µg/mL (≈ 19.5 µM)	> 100 µg/mL	> 12.9
CCCNC(=O)O[C@@H]1CC2=C(C)C3=C(C=C[C@]24COC(=O)[C@@H]4C1)C(=O)O[C@H]3c1ccoc1	7.77 µg/mL (≈ 17.7 µM)	66.2 µg/mL (≈ 151 µM)	8.51
CC1=C2C[C@@H](OC(=O)Nc3ccccc3)C[C@H]3C(=O)OC[C@@]23C=CC2=C1[C@H](c1ccoc1)OC2=O	10.5 µg/mL (≈ 22.3 µM)	> 100 µg/mL	> 9.5
COCO[C@@H]1CC2=C(C)C3=C(C=C[C@]24COC(=O)[C@@H]4C1)C(=O)O[C@H]3c1ccoc1	> 12.5 µg/mL		
CC(=O)OC1=CC2=C(C)C3=C(C=C[C@]24COC(=O)[C@@H]4C1)C(=O)O[C@H]3c1ccoc1	4.29 µg/mL (≈ 10.9 µM)	17.8 µg/mL (≈ 45.1 µM)	4.14
CCC(=O)OC1=CC2=C(C)C3=C(C=C[C@]24COC(=O)[C@@H]4C1)C(=O)O[C@H]3c1ccoc1	5.56 µg/mL (≈ 13.6 µM)	22.6 µg/mL (≈ 55.3 µM)	4.06
CC1=C2C=CC[C@H]3C(=O)OC[C@@]23C=CC2=C1[C@H](c1ccoc1)OC2=O	> 12.5 µg/mL		
NCCCC(N)(C(=O)O)C(F)F (stereo not given) [EFLORNITHINE]		> 100 µg/mL	> 44
N=C(N)c1ccc(OCCCCCOc2ccc(C(=N)N)cc2)cc1 [PENTAMIDINE]	0.0017 µg/mL (≈ 0.00499 µM)		3350
Cc1ccc(C(=O)Nc2ccc(S(=O)(=O)O)c3cc(S(=O)(=O)O)cc(S(=O)(=O)O)c23)cc1NC(=O)c1cccc(NC(=O)Nc2cccc(C(=O)Nc3cc(C(=O)Nc4ccc(S(=O)(=O)O)c5cc(S(=O)(=O)O)cc(S(=O)(=O)O)c45)ccc3C)c2)c1 [SURAMIN]		> 100 µg/mL	> 63

Further lines, with some results ahead:

IC50 [1]	SMILES	IC50 [2]	selectivity ratio [3]
0.72 µg/mL (≈ 2.04 µM)	CC1=C2C[C@@H](O)C=C3C(=O)OC[C@]32C=CC2=C1[C@H](c1ccoc1)OC2=O	0.84 µg/mL (≈ 2.38 µM)	1.17
> 12.5 µg/mL	CC1=C2CCC=C3C(=O)OC[C@]32CCC2=C1[C@H](c1ccoc1)OC2=O	16.2 µg/mL (≈ 47.8 µM)	
0.69 µg/mL (≈ 1.75 µM)	CC(=O)O[C@H]1C=C2C(=O)OC[C@]23C=CC2=C(C(C)=C3C1)[C@H](c1ccoc1)OC2=O	0.84 µg/mL (≈ 2.13 µM)	1.22
1.04 µg/mL (≈ 2.46 µM)	CCCC(=O)O[C@H]1C=C2C(=O)OC[C@]23C=CC2=C(C(C)=C3C1)[C@H](c1ccoc1)OC2=O	1.05 µg/mL (≈ 2.49 µM)	1.01
0.2 µg/mL (≈ 0.472 µM)	CCNC(=O)O[C@H]1C=C2C(=O)OC[C@]23C=CC2=C(C(C)=C3C1)[C@H](c1ccoc1)OC2=O	0.18 µg/mL (≈ 0.425 µM)	0.9
5.33 µg/mL (≈ 13 µM)	CCC(=O)O[C@@H]1CC2=C(C)C3=C(C=C[C@]24COC(=O)[C@@H]4C1)C(=O)O[C@H]3c1ccoc1	63.5 µg/mL (≈ 155 µM)	11.9
0.055 µg/mL (≈ 0.13 µM)	CCCC(=O)O[C@@H]1CC2=C(C)C3=C(C=C[C@]24COC(=O)[C@@H]4C1)C(=O)O[C@H]3c1ccoc1	68 µg/mL (≈ 160 µM)	1240
> 12.5 µg/mL	CCNC(=O)O[C@@H]1CC2=C(C)C3=C(C=C[C@]24COC(=O)[C@@H]4C1)C(=O)O[C@H]3c1ccoc1		
3.89 µg/mL (≈ 9.21 µM)	CCCC(=O)OC1=CC2=C(C)C3=C(C=C[C@]24COC(=O)[C@@H]4C1)C(=O)O[C@H]3c1ccoc1	21.6 µg/mL (≈ 51 µM)	5.54
